Assay results: ChEMBL document CHEMBL6103652, “Niacin Ester Derivative of Brefeldin A as a Potential Dual-Target Arf1/BMX Inhibitor for Bladder Cancer” (J Nat Prod, 2025)
Active and inactive are the calls of the source. The calls are words filed in the database; no cut-off is given here.

Legend:
[1] = Antitumor activity against mouse MB49 cells implanted in male C57BL/6 mouse model assessed as reduction in tumor weight at 1 mg/kg,iv bid measured after 14 days relative to control; type: functional; design: scale not given: the % may be the effect or the level left; settings: time 14 day
HCT-116 = experiment: Antiproliferative activity against human HCT-116 cells assessed as inhibition of cell proliferation measured after 72 hrs by MTT assay; type: functional, cell-based; settings: HCT-116, 72 h
T-24 [2] = experiment: Induction of cell cycle arrest in human T24 cells assessed as accumulation of cells at G1 phase at 0.25 uM incubated for 24 hrs by RNase A/Propidium Iodide staining based flow cytometry analysis (reference value: 43.80 %); type: functional
[3] = Downregulation of AKT expression level in human T24 cells at 0.13 to 0.50 uM incubated for 24 hrs by Western blotting analysis relative to control; type: functional, T-24; settings: dose 0.13-0.5 µM, at 0.13 to 0.5 µM
[4] = Antitumor activity against mouse MB49 cells implanted in male C57BL/6 mouse assessed as reduction in CD133 expression level at 1 mg/kg,iv bid measured after 14 days by immunohistochemical analysis relative to control; type: functional; design: scale not given: the % may be the effect or the level left; settings: time 14 day
Huh-7 = experiment: Antiproliferative activity against human Huh-7 cells assessed as inhibition of cell proliferation measured after 72 hrs by MTT assay; type: functional, cell-based; settings: Huh-7, 72 h
[5] = Downregulation of p-BMX expression level in human T24 cells at 0.5 uM incubated for 24 hrs by Western blotting analysis relative to control; type: functional, T-24
T-24 [6] = experiment: Inhibition of cell migration in human T24 cells at 0.50 uM incubated for 12 hrs by scratch assay (reference value: 66 %); type: functional
T-24 [7] = experiment: Inhibition of cell migration in human T24 cells at 0.125 uM incubated for 12 hrs by scratch assay (reference value: 66 %); type: functional; settings: T-24, 12 h
T-24 [8] = experiment: Induction of cell cycle arrest in human T24 cells assessed as accumulation of cells at G2/M phase at 0.50 uM incubated for 24 hrs by RNase A/Propidium Iodide staining based flow cytometry analysis (reference value: 22.67 %); type: functional; settings: dose 0.5 µM
[9] = Toxicity in male C57BL/6 mouse allografted with mouse MB49 cells assessed as tumor cell apoptosis at 1 mg/kg,iv bid measured after 14 days by H and E staining based analysis; type: organism-based; settings: in vivo, 336 h, time 14 day
MB49 [10] = experiment: Antitumor activity against mouse MB49 cells implanted in male C57BL/6 mouse model assessed as reduction in tumor volume at 1 mg/kg,iv bid measured after 14 days; type: functional, organism-based; settings: time 14.0 day
MB49 [11] = experiment: Antitumor immunity against mouse MB49 cells implanted in male C57BL/6 mouse assessed as increase in infiltration of CD8+T cells at 1 mg/kg,iv bid measured after 14 days immunofluorescence based analysis; type: functional, organism-based; settings: time 14.0 day
T24 = experiment: Inhibition of AKT phosphorylation in human T24 cells incubated for 24 hrs by Western blotting analysis; type: cell-based; settings: dose 0.13-0.5 µM
T-24 [12] = experiment: Antiproliferative activity against human T24 cells assessed as inhibition of cell proliferation at 0.25 uM incubated for 72 hrs by MTT assay relative to control; type: functional
[13] = Solubility of the compound in PEG400; type: physicochemical
[14] = Antiproliferative activity against […] MB49 cells assessed as inhibition of cell proliferation measured after 72 hrs by MTT assay; type: functional, cell-based; settings: MB49, 72 h
HT-29 = experiment: Antiproliferative activity against human HT-29 cells assessed as inhibition of cell proliferation measured after 72 hrs by MTT assay; type: functional, cell-based; settings: HT-29, 72 h
T-24 [15] = experiment: Induction of cell cycle arrest in human T24 cells assessed as accumulation of cells at S phase at 0.25 uM incubated for 24 hrs by RNase A/Propidium Iodide staining based flow cytometry analysis (reference value: 31.27 %); type: functional
T-24 [16] = experiment: Inhibition of cell migration in human T24 cells at 0.25 uM incubated for 24 hrs by scratch assay (reference value: 88 %); type: functional; settings: T-24, 24 h
[17] = Antitumor activity against mouse MB49 cells implanted in male C57BL/6 mouse assessed as reduction in Ki67 expression level at 1 mg/kg,iv bid measured after 14 days by immunohistochemical analysis relative to control; type: functional; design: scale not given: the % may be the effect or the level left; settings: time 14 day
[18] = Downregulation of p-STAT3 expression level in human T24 cells at 0.5 uM incubated for 24 hrs by Western blotting analysis relative to control; type: functional, T-24
T-24 [19] = experiment: Induction in apoptosis in human T24 cells assessed as late apoptotic cells at 0.13 uM incubated for 48 hrs by Annexin V-FITC staining based flow cytometry analysis (reference value: 4.78 %); type: functional
T-24 [20] = experiment: Induction in apoptosis in human T24 cells assessed as early apoptotic cells at 0.13 uM incubated for 48 hrs by Annexin V-FITC staining based flow cytometry analysis (reference value: 3.64 %); type: functional
[21] = Downregulation of p-AKT expression level in human T24 cells at 0.13 to 0.50 uM incubated for 24 hrs by Western blotting analysis relative to control; type: functional, T-24; settings: dose 0.13-0.5 µM, at 0.13 to 0.5 µM
T-24 [22] = experiment: Induction of cell cycle arrest in human T24 cells assessed as accumulation of cells at G2/M phase at 0.13 uM incubated for 24 hrs by RNase A/Propidium Iodide staining based flow cytometry analysis (reference value: 22.67 %); type: functional
T-24 [23] = experiment: Induction in apoptosis in human T24 cells assessed as viable cells at 0.13 uM incubated for 48 hrs by Annexin V-FITC staining based flow cytometry analysis (reference value: 90.44 %); type: functional; settings: read-out: Activity
[24] = biological target: T1, Cytoplasmic tyrosine-protein kinase BMX (Homo sapiens) (UniProt P51813); experiment: Induction of thermal stabilization of BMX in human T24 cells pretreated for 2 hrs followed by pronase addition and measured after 25 mins by DARTS assay; type: cell-based; settings: dose 0.2-5 mM
T1 sequence (whole entry): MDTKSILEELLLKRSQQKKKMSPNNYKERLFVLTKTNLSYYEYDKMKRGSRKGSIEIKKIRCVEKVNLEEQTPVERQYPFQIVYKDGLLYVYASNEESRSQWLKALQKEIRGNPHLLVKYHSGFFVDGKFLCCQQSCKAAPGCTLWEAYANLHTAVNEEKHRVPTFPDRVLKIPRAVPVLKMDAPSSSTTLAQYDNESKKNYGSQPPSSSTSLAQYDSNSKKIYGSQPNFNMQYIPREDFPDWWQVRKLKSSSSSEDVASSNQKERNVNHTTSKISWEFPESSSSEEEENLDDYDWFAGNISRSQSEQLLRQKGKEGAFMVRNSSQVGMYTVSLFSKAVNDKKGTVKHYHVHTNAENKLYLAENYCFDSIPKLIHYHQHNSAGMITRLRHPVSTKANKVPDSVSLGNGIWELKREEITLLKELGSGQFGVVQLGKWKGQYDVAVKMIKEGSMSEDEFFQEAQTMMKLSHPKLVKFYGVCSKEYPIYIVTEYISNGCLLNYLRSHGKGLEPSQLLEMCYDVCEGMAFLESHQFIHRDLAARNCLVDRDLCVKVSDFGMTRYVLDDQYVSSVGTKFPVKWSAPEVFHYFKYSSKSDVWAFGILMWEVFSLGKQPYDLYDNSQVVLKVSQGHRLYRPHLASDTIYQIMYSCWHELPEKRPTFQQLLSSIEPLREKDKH

## C[C@H]1CCC/C=C/[C@@H]2C[C@H](O)C[C@H]2[C@H](OC(=O)c2cccnc2)/C=C/C(=O)O1
[1]
  Activity: 48%
HCT-116
  IC50: 580 nM
T-24 [2]
  Activity: 48.88%
[3]
  Activity: 62%
[4]
  Activity: 61%
Huh-7
  IC50: 1000 nM
[5]
  Activity: 35%
T-24 [6]
  wound closure at 0.5 µM: 13%
T-24 [7]
  wound closure at 0.125 µM: 22%
T-24 [8]
  Activity: 14.82%
[9]
  Activity: Non-toxic
MB49 [10]
  Activity: Active
MB49 [11]
  Activity: Active
T24
  inhibition: Dose-dependent-effect
T-24 [12]
  inhibition at 0.25 µM: 54%
[13]
  solubility: Not_active
[14]
  IC50: 4.77 µM
HT-29
  IC50: 410 nM
T-24 [15]
  Activity: 29.56%
T-24 [16]
  wound closure at 0.25 µM: 26%
[17]
  Activity: 56%
[18]
  Activity: 55%
T-24 [19]
  Activity: 4.41%
T-24 [20]
  Activity: 5.52%
[21]
  Activity: 46%
T-24 [22]
  Activity: 22.53%
T-24 [23]
  viability at 0.13 µM: 89.2%
[24]
  Activity: Dose-dependent-effect
